Measurements: patent US8895754B2, “Process to make UV radiation absorbing 2-phenyl-1,2,3,-benzotriazoles” (DSM IP Assets B.V., priority 2010, dated 2014)

Assay: Determination of the solubility in cosmetic solvents
Type: physicochemical
Conditions: saturated solution stirred 7 days at room temperature, concentration by HPLC; for solubility Finsolv TN: C12-15 Alkylbenzoate; for solubility Myritol 318: Capric/Caprylic Triglyceride
Method: 1.5 g of a cosmetic solvent (Capric/Caprylic Triglyceride (Mygliol 318) and C12-15 Alkylbenzoate (Finsolv TN)) is saturated with the respective Benzotriazol-derivative by adding 0.2 g portions while stirring at room temperature. The saturated solution is stirred for 7 days at room temperature. 1 ml of the supernatant is centrifuged and filtered in order to obtain a clear solution. The concentration of the Benzotriazol-derivative is determined by means of HPLC.

SMILES	solubility Finsolv TN [%]	solubility Myritol 318 [%]
CCCCC(CC)C(=O)OCc1cc(C)cc(-n2nc3ccccc3n2)c1O (stereo not shown) [Example 7, 2-Ethyl-hexanoic Acid 3-(2H-benzotriazol-2-yl)-2-hydroxy-5-methyl-benzyl Ester]	42	24
Cc1cc(COC(=O)CC(C)C)c(O)c(-n2nc3ccccc3n2)c1 [Example 8, 3-Methyl-butyric Acid 3-(2H-benzotriazol-2-yl)-2-hydroxy-5-methyl-benzyl Ester]	8	6
Cc1cc(COCCC(C)C)c(O)c(-n2nc3ccc(Cl)cc3n2)c1 [Example 6, 2-(5-Chloro-2H-benzotriazol-2-yl)-4-methyl-6-(3-methyl-butoxymethyl)-phenol]	19	12
Cc1cc(COCCC(C)C)c(O)c(-n2nc3ccccc3n2)c1 [Example 4, 2-(2H-Benzotriazol-2-yl)-6-(3-methyl-butoxymethyl)-4-methyl-phenol]	37	36
Cc1cc(COCc2cc(C)cc(-n3nc4ccccc4n3)c2O)c(O)c(-n2nc3ccccc3n2)c1 [Example 9, 3,3′-Bis(2H-benzotriazol-2-yl)-2,2′-dihydroxy-5,5′-dimethylbenzyl Ether]	0.02	0.01
